Assays:
B1 bradykinin receptor [1] = target: T1, B1 bradykinin receptor (Homo sapiens, UniProt P46663); assay: Binding affinity to human BK1 receptor Q295 mutant
B1 bradykinin receptor [2] = target: T1, B1 bradykinin receptor; assay: Binding affinity to human BK1 receptor N298 mutant
B1 bradykinin receptor [3] = target: T1, B1 bradykinin receptor; assay: Binding affinity to human BK1 receptor D291 mutant
B1 bradykinin receptor [4] = target: T2, B1 bradykinin receptor (Homo sapiens, UniProt P46663); assay: Binding affinity to human BK1 receptor
T2 sequence (P46663 whole entry): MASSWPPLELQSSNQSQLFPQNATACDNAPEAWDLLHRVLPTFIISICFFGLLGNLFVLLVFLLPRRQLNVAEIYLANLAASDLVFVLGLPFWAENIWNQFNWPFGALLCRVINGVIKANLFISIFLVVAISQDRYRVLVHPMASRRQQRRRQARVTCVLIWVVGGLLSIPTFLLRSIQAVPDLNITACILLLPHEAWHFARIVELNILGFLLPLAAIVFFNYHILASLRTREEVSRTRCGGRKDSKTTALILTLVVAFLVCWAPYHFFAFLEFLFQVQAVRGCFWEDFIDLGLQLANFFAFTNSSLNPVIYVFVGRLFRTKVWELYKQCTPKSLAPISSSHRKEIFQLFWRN

B1 bradykinin receptor [5] = target: T1, B1 bradykinin receptor; assay: Binding affinity to human BK1 receptor E273 mutant

With `O=C(C[C@@H]1C(=O)Nc2ccccc2N1S(=O)(=O)c1ccc(Cl)c(Cl)c1)NCCc1ccc(C2=NCCN2)cc1` as the molecule, how does the Ki (B1 bradykinin receptor [1]) read?
The Ki was 0.89 nM.

And the Ki (B1 bradykinin receptor [2])?
Its Ki is 0.038 nM.

And the Ki (B1 bradykinin receptor [3])?
The Ki was 0.049 nM.

And the Ki (B1 bradykinin receptor [4])?
Its Ki is 0.034 nM.

And the Ki (B1 bradykinin receptor [5])?
Its Ki is 0.0078 nM.

With `COC(=O)c1c(F)cccc1-c1ccc(CNc2ccc(C(=O)N3CCN(C4CCCC4)CC3)cn2)c(F)c1` as the molecule, how does the Ki (B1 bradykinin receptor [4]) read?
Its Ki is 1.5 nM.

For `COC(=O)c1c(F)cccc1-c1ccc(CNc2ccc(C(=O)N3CCN(C4CCC4)CC3)cn2)c(F)c1`, which Ki (B1 bradykinin receptor [4]) is on record?
Its Ki is 2.9 nM.

With `COC(=O)c1c(F)cccc1-c1ccc(CNc2ccc(C(=O)N3CCN(CC4CCC4)CC3)cn2)c(F)c1` as the molecule, how does the Ki (B1 bradykinin receptor [4]) read?
Its Ki is 3.4 nM.

For `COC(=O)c1c(F)cccc1-c1ccc(CNc2ccc(C(=O)N3CCN(C(C)=O)CC3)cn2)c(F)c1`, which Ki (B1 bradykinin receptor [4]) is on record?
Its Ki is 17 nM.

With `COC(=O)c1c(F)cccc1-c1ccc(CNc2ccc(C(=O)N3CCN(CC(F)F)CC3)cn2)c(F)c1` as the molecule, how does the Ki (B1 bradykinin receptor [4]) read?
Its Ki is 28 nM.

`COC(=O)c1c(F)cccc1-c1ccc(CNc2ccc(C(=O)N3CCN(S(C)(=O)=O)CC3)cn2)c(F)c1` was tested. Which Ki (B1 bradykinin receptor [4]) did it give?
Its Ki is 23 nM.

How did the Ki (B1 bradykinin receptor [4]) turn out when `C#CCN1CCN(C(=O)c2ccc(NCc3ccc(-c4cccc(F)c4C(=O)OC)cc3F)nc2)CC1` was run?
Its Ki is 25 nM.

`COC(=O)c1c(F)cccc1-c1ccc(CNc2ccc(C(=O)N3CCN(c4ccccn4)CC3)cn2)c(F)c1` was tested. Which Ki (B1 bradykinin receptor [1]) did it give?
The Ki was 10000 nM.

What about the Ki (B1 bradykinin receptor [2]) of the same molecule?
Its Ki is 726 nM.

And the Ki (B1 bradykinin receptor [3])?
Its Ki is 85 nM.

And the Ki (B1 bradykinin receptor [4])?
Its Ki is 65 nM.

And the Ki (B1 bradykinin receptor [5])?
The Ki was 286 nM.

`COC(=O)c1c(F)cccc1-c1ccc(CNc2ccc(C(=O)N3CCN(CC4CC4)CC3)cn2)c(F)c1` was tested. Which Ki (B1 bradykinin receptor [4]) did it give?
Its Ki is 0.85 nM.

With `COC(=O)c1c(F)cccc1-c1ccc(CNc2ccc(C(=O)N3CCNCC3)cn2)c(F)c1` as the molecule, how does the Ki (B1 bradykinin receptor [4]) read?
The Ki was 5.5 nM.

For `COC(=O)c1c(F)cccc1-c1ccc(CNc2ccc(C(=O)N3CCOCC3)cn2)c(F)c1`, which Ki (B1 bradykinin receptor [4]) is on record?
Its Ki is 80 nM.

How did the Ki (B1 bradykinin receptor [4]) turn out when `CCN1CCN(C(=O)c2ccc(NCc3ccc(-c4cccc(F)c4C(=O)OC)cc3F)nc2)CC1` was run?
Its Ki is 3.4 nM.

How did the Ki (B1 bradykinin receptor [4]) turn out when `CCCN1CCN(C(=O)c2ccc(NCc3ccc(-c4cccc(F)c4C(=O)OC)cc3F)nc2)CC1` was run?
Its Ki is 1.7 nM.

How did the Ki (B1 bradykinin receptor [4]) turn out when `COC(=O)c1c(F)cccc1-c1ccc(CNc2ccc(C(=O)N3CCCCC3)cn2)c(F)c1` was run?
Its Ki is 70 nM.

For `C/C=C/CN1CCN(C(=O)c2ccc(NCc3ccc(-c4cccc(F)c4C(=O)OC)cc3F)nc2)CC1`, which Ki (B1 bradykinin receptor [4]) is on record?
Its Ki is 3.3 nM.

With `COC(=O)c1c(F)cccc1-c1ccc(CNc2ccc(C(=O)N3CCN(CCC(C)C)CC3)cn2)c(F)c1` as the molecule, how does the Ki (B1 bradykinin receptor [4]) read?
Its Ki is 9.5 nM.

For `COC(=O)c1c(F)cccc1-c1ccc(CNc2ccc(CN3CCOCC3)cn2)c(F)c1`, which Ki (B1 bradykinin receptor [4]) is on record?
Its Ki is 184 nM.

How did the Ki (B1 bradykinin receptor [4]) turn out when `COC(=O)c1c(F)cccc1-c1ccc(CNc2ccc(C(=O)N3CCN(C)CC3)cn2)c(F)c1` was run?
Its Ki is 4.4 nM.

For `C=CCCN1CCN(C(=O)c2ccc(NCc3ccc(-c4cccc(F)c4C(=O)OC)cc3F)nc2)CC1`, which Ki (B1 bradykinin receptor [4]) is on record?
Its Ki is 4 nM.

`COC(=O)c1c(F)cccc1-c1ccc(CNc2cc(C(=O)N3CCOCC3)ccn2)c(F)c1` was tested. Which Ki (B1 bradykinin receptor [4]) did it give?
Its Ki is 2100 nM.

How did the Ki (B1 bradykinin receptor [4]) turn out when `COC(=O)c1c(F)cccc1-c1ccc(CNc2ccc(C(=O)N3CCN(c4ccccc4)CC3)cn2)c(F)c1` was run?
Its Ki is 62 nM.

`C=CCN1CCN(C(=O)c2ccc(NCc3ccc(-c4cccc(F)c4C(=O)OC)cc3F)nc2)CC1` was tested. Which Ki (B1 bradykinin receptor [4]) did it give?
Its Ki is 8 nM.

How did the Ki (B1 bradykinin receptor [4]) turn out when `COC(=O)c1c(F)cccc1-c1ccc(CNc2cc(C(=O)N3CCN(C)CC3)ccn2)c(F)c1` was run?
Its Ki is 893 nM.

For `COC(=O)c1c(F)cccc1-c1ccc(CNc2ccc(CN3CCCCC3)cn2)c(F)c1`, which Ki (B1 bradykinin receptor [4]) is on record?
Its Ki is 9.1 nM.

How did the Ki (B1 bradykinin receptor [4]) turn out when `COC(=O)c1c(Cl)cccc1-c1ccc(CNc2cc(CN3CCOCC3)ccn2)c(F)c1` was run?
Its Ki is greater than 3000 nM.

For `COC(=O)c1c(F)cccc1-c1ccc(CNc2cc(C(=O)N3CCCCC3)ccn2)c(F)c1`, which Ki (B1 bradykinin receptor [4]) is on record?
The Ki was greater than 3000 nM.

Which Ki (B1 bradykinin receptor [4]) does the source give for `CCCCN1CCN(C(=O)c2ccc(NCc3ccc(-c4cccc(F)c4C(=O)OC)cc3F)nc2)CC1` here?
The Ki was 1.4 nM.

Which Ki (B1 bradykinin receptor [4]) does the source give for `COC(=O)c1c(F)cccc1-c1ccc(CNc2nccc(C)c2NC(=O)CC#N)c(F)c1` here?
Its Ki is 0.71 nM.

With `COC(=O)c1c(F)cccc1-c1ccc(CNc2ccccn2)c(F)c1` as the molecule, how does the Ki (B1 bradykinin receptor [4]) read?
The Ki was 815 nM.

`CCC(C)N1CCN(C(=O)c2ccc(NCc3ccc(-c4cccc(F)c4C(=O)OC)cc3F)nc2)CC1` (stereo not given) was tested. Which Ki (B1 bradykinin receptor [4]) did it give?
The Ki was 1.5 nM.

With `COC(=O)c1c(Cl)cccc1-c1ccc(CNc2cc(CN3CCCCC3)ccn2)c(F)c1` as the molecule, how does the Ki (B1 bradykinin receptor [4]) read?
Its Ki is 611 nM.

For `COC(=O)c1c(F)cccc1-c1ccc(CNc2ccc(C(=O)N3CCN(CC4CCCC4)CC3)cn2)c(F)c1`, which Ki (B1 bradykinin receptor [4]) is on record?
Its Ki is 1.7 nM.

How did the Ki (B1 bradykinin receptor [4]) turn out when `COC(=O)c1c(F)cccc1-c1ccc(CNc2ccc(C(=O)N3CCN(C(=O)C(C)(C)C)CC3)cn2)c(F)c1` was run?
Its Ki is 213 nM.

Which Ki (B1 bradykinin receptor [4]) does the source give for `COC(=O)c1c(F)cccc1-c1ccc(CNc2ccc(C(=O)N3CCN(C4CCCCC4)CC3)cn2)c(F)c1` here?
The Ki was 2.8 nM.

Which Ki (B1 bradykinin receptor [4]) does the source give for `COC(=O)c1c(F)cccc1-c1ccc(CNc2ccc(C(=O)N3CCN(CC(C)C)CC3)cn2)c(F)c1` here?
Its Ki is 1.5 nM.

How did the Ki (B1 bradykinin receptor [4]) turn out when `COC(=O)c1c(F)cccc1-c1ccc(CNc2ccc(C(=O)N3CCN(CCF)CC3)cn2)c(F)c1` was run?
Its Ki is 5.2 nM.

How did the Ki (B1 bradykinin receptor [4]) turn out when `COC(=O)c1c(F)cccc1-c1ccc(CNc2ccc(C(=O)N3CCN(CC(F)(F)F)CC3)cn2)c(F)c1` was run?
The Ki was 52 nM.

`COC(=O)c1c(F)cccc1-c1ccc(CNc2ccc(C(=O)N3CCN(C(=O)OC)CC3)cn2)c(F)c1` was tested. Which Ki (B1 bradykinin receptor [4]) did it give?
Its Ki is 34 nM.

With `COC(=O)c1c(F)cccc1-c1ccc(CNc2ccc(C(=O)N3CCN(c4cccnc4)CC3)cn2)c(F)c1` as the molecule, how does the Ki (B1 bradykinin receptor [4]) read?
Its Ki is 3.5 nM.

What does the source list for `COC(=O)c1c(F)cccc1-c1ccc(CNc2ccc(C(=O)N3CCN(c4ccncc4)CC3)cn2)c(F)c1`?
Ki (B1 bradykinin receptor [1]): 5.12 nM; Ki (B1 bradykinin receptor [2]): 0.83 nM; Ki (B1 bradykinin receptor [3]): 0.08 nM; Ki (B1 bradykinin receptor [4]): 0.045 nM; Ki (B1 bradykinin receptor [5]): 0.05 nM

For `COC(=O)c1c(F)cccc1-c1ccc(CNc2ccc(C(=O)N3CCN(Cc4ccccc4)CC3)cn2)c(F)c1`, which Ki (B1 bradykinin receptor [4]) is on record?
The Ki was 26 nM.

For `COC(=O)c1c(F)cccc1-c1ccc(CNc2ccc(C(=O)N3CCN(C(C)C)CC3)cn2)c(F)c1`, which Ki (B1 bradykinin receptor [4]) is on record?
Its Ki is 2.2 nM.
